Results published in PMC7717120 (Bioorganic & medicinal chemistry letters, 2015).
Entries after “also recorded” stand apart in the source; their conditions may differ.

What was measured:
[1] = system: HIV-1; format: cell-based
[2] = system: primary human PBM cells; test: Cytotoxicity in primary human PBM cells; format: cell-based
[3] = system: Vero cells; test: Cytotoxicity in Vero cells; format: cell-based, African Green monkey
[4] = system: CEM cells

SMILES | Anti-HIV-1 activity (in words) [1] | Toxicity in primary human PBM cells (in words) [2] | Toxicity in Vero cells (in words) [3] | Toxicity in CEM cells (in words) [4]
Cc1c2c(nn1CC(=O)NCc1ccccc1Cl)-c1ccccc1S(=O)(=O)N2C [Compound 6a] | active | no toxicity | toxic; also recorded: displayed toxicity | no toxicity
Cc1c2c(nn1CC(=O)NCc1ccc(F)cc1)-c1ccccc1S(=O)(=O)N2C [Compound 6c] | – | – | – | toxic
Cc1c2c(nn1CC(=O)NCc1ccccc1Br)-c1ccccc1S(=O)(=O)N2C [Compound 6d] | active | – | toxic | toxic
COc1ccccc1CNC(=O)Cn1nc2c(c1C)N(C)S(=O)(=O)c1ccccc1-2 [Compound 6e] | active | no toxicity | no toxicity | no toxicity
COc1cccc(CNC(=O)Cn2nc3c(c2C)N(C)S(=O)(=O)c2ccccc2-3)c1 [Compound 6f] | – | toxic | toxic | toxic
COc1ccc(CNC(=O)Cn2nc3c(c2C)N(C)S(=O)(=O)c2ccccc2-3)cc1 [Compound 6g] | active | no toxicity | no toxicity | no toxicity
Cc1ccc(CNC(=O)Cn2nc3c(c2C)N(C)S(=O)(=O)c2ccccc2-3)cc1 [Compound 6i] | active | no toxicity | no toxicity | no toxicity
Cc1c2c(nn1CC(=O)Nc1ccccc1)-c1ccccc1S(=O)(=O)N2C [Compound 7a] | effective inhibitors; also recorded: active | – | – | –
Cc1c2c(nn1CC(=O)Nc1ccccc1F)-c1ccccc1S(=O)(=O)N2C [Compound 7b] | effective inhibitors; also recorded: active | – | – | –
Cc1c2c(nn1CC(=O)Nc1ccccc1Br)-c1ccccc1S(=O)(=O)N2C [Compound 7c] | effective inhibitors; also recorded: active | – | – | –
Cc1c2c(nn1CC(=O)Nc1cccc(Br)c1)-c1ccccc1S(=O)(=O)N2C [Compound 7d] | effective inhibitors; also recorded: active | – | – | –
COc1cccc(NC(=O)Cn2nc3c(c2C)N(C)S(=O)(=O)c2ccccc2-3)c1 [Compound 7e] | effective inhibitors; also recorded: active | – | no toxicity | –
